Experiments:
His-Brd3(20-477) = His-Brd3(20-477) (Homo sapiens (Human), UniProt Q15059); assay: TR-FRET in-vitro binding assay for BRD3; conditions: biochemical
Procedure, shortened: (§1)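 Assay buffer HEPES pH 7.5/NaCl/Tween20/BSA; protein solution 45 nM, peptide solution 60 nM acetyl-H4 (AcK5,8,12,16). Incubated 30 °C for 35 min; Eu-anti-His6 and SA-APC detection, TR-FRET read.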

MV-4-11 cells = assay: Cell growth inhibition assay (CellTiter-Glo), MV-4-11; type: cell-based; conditions: Homo sapiens, MV4-11, read-out: MV-4-11 TGI
Procedure, shortened: (§2)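 CellTiter-Glo ATP luminescence after compound exposure at 37° C., 5% CO2; 3-fold serial dilutions from 10 μM, 0.1% DMSO vehicle. Readings background- and day 0-corrected, vehicle = 100%, medium = −100%. IC50 and total growth inhibition (TGI) from four-parameter fits.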

K-562 cells = assay: Cell growth inhibition assay (CellTiter-Glo), K-562; type: cell-based, human; conditions: Homo sapiens, K562, read-out: K-562 TGI
Procedure, shortened: as §2

THP-1 cells = assay: Cell growth inhibition assay (CellTiter-Glo), THP-1; type: cell-based; conditions: Homo sapiens, read-out: THP-1 TGI
Procedure, shortened: as §2

His-Brd2(60-472) = His-Brd2(60-472) (Homo sapiens (Human), UniProt P25440); assay: TR-FRET in-vitro binding assay for BRD2; conditions: biochemical
Procedure, shortened: as §1

His-Brd2(60-472), sequence (P25440 60-472): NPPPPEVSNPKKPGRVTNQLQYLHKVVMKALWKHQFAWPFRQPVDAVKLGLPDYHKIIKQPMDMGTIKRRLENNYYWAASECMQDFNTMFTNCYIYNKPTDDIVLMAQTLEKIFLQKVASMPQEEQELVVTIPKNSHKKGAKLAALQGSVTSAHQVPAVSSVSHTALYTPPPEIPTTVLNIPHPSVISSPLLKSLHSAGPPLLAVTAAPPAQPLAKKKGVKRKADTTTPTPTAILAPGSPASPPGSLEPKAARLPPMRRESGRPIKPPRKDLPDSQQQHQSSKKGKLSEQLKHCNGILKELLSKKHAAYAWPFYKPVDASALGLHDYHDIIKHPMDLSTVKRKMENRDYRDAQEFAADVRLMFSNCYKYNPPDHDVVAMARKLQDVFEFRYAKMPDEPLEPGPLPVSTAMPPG
His-Brd3(20-477), sequence (Q15059 20-477): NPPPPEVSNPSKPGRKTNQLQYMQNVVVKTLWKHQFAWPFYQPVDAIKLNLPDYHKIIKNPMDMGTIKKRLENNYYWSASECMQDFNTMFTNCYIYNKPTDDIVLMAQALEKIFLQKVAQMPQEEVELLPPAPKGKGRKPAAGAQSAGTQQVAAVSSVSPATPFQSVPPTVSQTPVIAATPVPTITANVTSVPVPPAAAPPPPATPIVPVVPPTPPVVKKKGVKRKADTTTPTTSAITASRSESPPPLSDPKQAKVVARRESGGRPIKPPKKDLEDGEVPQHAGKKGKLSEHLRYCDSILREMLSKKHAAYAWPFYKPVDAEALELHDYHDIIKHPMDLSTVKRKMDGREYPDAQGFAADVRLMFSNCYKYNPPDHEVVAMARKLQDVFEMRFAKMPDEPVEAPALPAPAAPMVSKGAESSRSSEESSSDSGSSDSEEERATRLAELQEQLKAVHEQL

Structure (SMILES) | IC50 (His-Brd3(20-477)) | IC (total growth inhibition) (MV-4-11 cells) | IC (total growth inhibition) (K-562 cells) | IC (total growth inhibition) (THP-1 cells) | IC50 (His-Brd2(60-472))
CCOc1c2c(nn1C)C(=O)N(c1cc(C)c(=O)n(C)c1)C2c1ccc(Cl)cc1 (stereo not drawn) [Example 76, 4-(4-chlorophenyl)-5-(1,5-dimethyl-6-oxo-1,6-dihydropyridin-3-yl)-3-ethoxy-2-methyl-4,5-dihydropyrrolo[3,4-c]pyrazol-6(2H)-one] | 0.1 µM | 0.107 µM | > 10 µM | 0.3 µM | 0.1 µM
Cc1cc(N2C(=O)c3nn(C4CN(C)C4)c(C)c3C2c2ccc(Cl)cc2)cn2c(C)nnc12 (stereo not drawn) [Example 158, 4-(4-chlorophenyl)-5-(3,8-dimethyl-[1,2,4]triazolo[4,3-a]pyridin-6-yl)-3-methyl-2-(1-methylazetidin-3-yl)-4,5-dihydropyrrolo[3,4-c]pyrazol-6(2H)-one] | 0.093 µM | 0.045 µM | > 10 µM | 0.298 µM | 0.098 µM
COc1ncc(-n2nc3c(c2C)C(c2ccc(Cl)cc2)N(c2cc(Cl)c(=O)n(C)c2)C3=O)c(OC)n1 (stereo not drawn) [Example 55, 5-(5-chloro-1-methyl-6-oxo-1,6-dihydropyridin-3-yl)-4-(4-chlorophenyl)-2-(2,4-dimethoxypyrimidin-5-yl)-3-methyl-4,5-dihydropyrrolo[3,4-c]pyrazol-6(2H)-one] | 0.079 µM | 0.123 µM | > 10 µM | 0.364 µM | 0.098 µM

From patent US8975417B2, “Pyrazolopyrrolidine derivatives and their use in the treatment of disease” (Novartis AG, priority 2013, dated 2015)
